Experimental data from patent US20080113063A1, “MICRONUTRIENT SUPPLEMENT” (priority 2006, published 2008).

Experiments:
[1] = Soluble copper versus pH on titration of TBCC mother liquor with NH4OH; type: physicochemical; conditions: pH about 5.6, room temperature, ammonium chloride mother liquor
Procedure: The starting material used for this example was mother liquor remaining after the production of tribasic copper chloride (TBCC) from spent circuit board chemical etchants. The particular sample of mother liquor was slightly acidic, contained several hundred grams per liter of ammonium chloride and about 12 g/L of dissolved copper. The series of tests were conducted at room temperature. A 400 mL sample was titrated with NH4OH solution having a specific gravity of 0.93 and containing about 16% NH3 by weight. The pH and soluble copper concentrations were measured after each increment of NH4OH solution added. The results are illustrated in FIG. 4. Precipitation of copper initiated at a pH of about 4.1 and continued until the pH reached about 5.5. It was apparent that the copper amine chloride salt was forming at least within the pH range of 4.5 to 5.6. As expected from the stoichiometry of Equation 3, about 1 mole of copper was precipitated for every 2 moles of ammonia added. For this particular series of tests, the minimum solubility of copper was about 1,000 mg/L at a pH of about 5.6. As more ammonium hydroxide was added to raise the pH above 5.6, the copper amine chloride salt dissolved to form a navy blue soluble copper tetrammine complex. At a pH above about 7.2 virtually all of the copper ammine chloride salt had dissolved. […]

[2] = tested on: male avian broiler chicks; test: Bioavailability of zinc in chicks fed a zinc-free basal corn-soybean diet plus zinc source, 20-day experiment; type: in vivo
Procedure: An experiment was conducted to compare the bioavailability of zinc from zinc diammine chloride (ZDC or Zn(NH3)2Cl2) with that of reagent grade zinc sulfate heptahydrate (ZSH or ZnSO4.7H2O). A zinc-free basal corn-soybean diet was formulated. The zinc sources were added to the basal diet at doses of 4 mg Zn per kg and 8 mg Zn per kg. The basal and experimental diets were mixed using a horizontal mixer for basal diet and a Hobart mixer for individual treatments. All diets were fed as a mash feed. Eighty male avian broiler chicks were used in the 20-day experiment. The test birds were randomly divided into 20 pens of 4 birds each. The birds were housed in thermostatically controlled, stainless steel battery cages with raised wire flooring in an environmentally controlled facility. Environmental conditions for the birds (i.e., floor space, temperature, lighting, feeder and water space) were similar for all test groups. The chicks were pretested for the first three days after hatching; and then they were switched to the basal diet until the start of the study at day eight. Water that had been deionized and distilled and feed was available for ad libitum consumption.
All feed added to the pens was recorded. Feed was weighed back at the conclusion of the trial and the feed intake was calculated. The ratio of weight gain to feed consumed was calculated for the period using the average weight gain of birds per treatment divided by the average feed consumption for the treatment throughout the test period.

Structure (SMILES) | minimum solubility of copper [1] | improvement of overall weight gain compared to the control ([2]; 4 mg Zn per kg feed) | improvement of weight gain per unit of feed compared to the control ([2]; 4 mg Zn per kg feed) | improvement of overall weight gain compared to the control ([2]; 8 mg Zn per kg feed) | improvement of weight gain per unit of feed compared to the control ([2]; 8 mg Zn per kg feed) | Feed Intake ([2]; Zn 4 mg/kg added to basal diet) | Gain:Feed ([2]; Zn 4 mg/kg added to basal diet) | Weight Gain ([2]; Zn 4 mg/kg added to basal diet) | Feed Intake ([2]; Zn 8 mg/kg added to basal diet) | Gain:Feed ([2]; Zn 8 mg/kg added to basal diet) | Weight Gain ([2]; Zn 8 mg/kg added to basal diet)
N.N.[Cl][Cu][Cl] [CDC, copper diammine chloride] | about 1,000 mg/L |  |  |  |  |  |  |  |  |  | 
N.N.[Cl][Zn][Cl] [ZDC, zinc diammine chloride] |  | about 37% | about 24% | ~75% | ~28% | 189.8 g/chick | 523 g/kg | 99.3 g/chick | 235.3 g/chick | 538 g/kg | 126.5 g/chick
O.O.O.O.O.O.O.O=S(=O)([O-])[O-].[Zn+2] [ZnSO4•7H2O, zinc sulfate heptahydrate, reference compound] |  |  |  |  |  | 201.8 g/chick | 497 g/kg | 100.5 g/chick | 233.5 g/chick | 514 g/kg | 119.8 g/chick
